Data: patent US20210292330A1, “PYRROLIDINE-FUSED HETEROCYCLES” (Erasca, Inc., priority 2020, published 2021)

Biological target: T1, KRAS 4B G12C protein (Homo sapiens, UniProt P01116, G12C)
T1 construct: This protein contained 188 amino acids in total, including an N-terminal 6-Histidine tag; made in house; host or cells: E. coli BL21
Assay: In vitro covalent adduct formation (CAF) assay by LC-MS
Assay type: binding
Conditions: compound 10 μM, protein 5 μM, 22° C., percentage of protein bound by the compound
Summary of the method: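 Percent of protein covalently modified was quantified from intact-mass LC-MS ratios of free versus adducted protein, adducts within 1 Da of expected mass. Reactions: 10 μM compound, 5 μM His-TEV-KRAS 4B G12C (1-169) in TBS pH 7.4, 4% DMSO, 22° C., one hour, run in duplicate.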

Compound	CAF (10 minutes/60 minutes) at 10 micromolar: 10 minutes	CAF (10 minutes/60 minutes) at 10 micromolar: 60 minutes
C=CC(=O)N1CCN(c2nc(OC[C@@H]3CCCN3C(C)(C)C)nc3c2CN(C2CCc4ccccc42)C3)C[C@@H]1CC#N (stereo partly drawn) [1-202]	82%	89%
C=CC(=O)N1CCN(c2nc(OC[C@@H]3CCCN3C)nc3c2CN(Cc2cccc4ncoc24)C3)C[C@@H]1CC#N [1-203]	11%	52%
C=CC(=O)N1CCN(c2nc(OC[C@@H]3CCCN3C)nc3c2CN(Cc2cccc4ocnc24)C3)C[C@@H]1CC#N [1-204]	46%	84%
C=CC(=O)N1CCN(c2nc(OC[C@@H]3CCCN3C)nc3c2CN(Cc2ccccc2CCC)C3)C[C@@H]1CC#N [1-206]	86%	94%
C=CC(=O)N1CCN(c2nc(Oc3cnc(N)nc3C3CC3)nc3c2CN(C2CCc4ccccc42)C3)C[C@@H]1CC#N (stereo partly drawn) [1-207]	16%	50%
C=CC(=O)N1CCN(c2nc(OC[C@@H]3CCCN3C3CC(=O)C3)nc3c2CN(C2CCc4ccccc42)C3)C[C@@H]1CC#N (stereo partly drawn) [1-208]	0%	18%
C=CC(=O)N1CCN(c2nc(OC[C@@H]3CCCN3C)nc3c2CN(C2CCc4ccccc42)C3)C[C@@H]1C[S+](C)[O-] (stereo partly drawn) [1-209]	0%/ 0%	0%/ 0%
C=CC(=O)N1CCN(c2nc(OC[C@@H]3CCCN3C)nc3c2CN(C2CCc4ccccc42)C3)C2CS(=O)(=O)CC21 (stereo partly drawn) [1-210]	0%/ 0%	0%/ 0%
C=CC(=O)N1CCN(c2nc(OC[C@@H]3CCCN3C)nc3c2CN(C2CCc4ccccc42)C3)C[C@@H]1CCC#N (stereo partly drawn) [1-212]	0%	5%
C=CC(=O)N1CCN(c2nc(OC[C@@H]3CCCN3C)nc3c2CN(Cc2ccccc2C(F)(F)F)C3)C[C@@H]1CC#N [1-213]	94%	95%
C=CC(=O)N1CCN(c2nc(OC[C@@H]3CCCN3C)nc3c2CN(C2CCc4ccccc42)C3)C[C@@H]1Cn1ccnn1 (stereo partly drawn) [1-214]	0%	2%
C=CC(=O)N1CCN(c2nc(OC[C@@H]3CCCN3C)nc3c2CN(C2CCc4ccccc42)C3)C[C@@H]1Cn1nccn1 (stereo partly drawn) [1-215]	0%	7%
C=CC(=O)N1CC2(C1)CN(c1nc(OC[C@@H]3CCCN3C)nc3c1CN(C1CCc4ccccc41)C3)CCO2 (stereo partly drawn) [1-216]	18%	54%
C=CC(=O)N1CCN(c2nc(OC[C@@H]3CCCN3C)nc3c2CN(C2CCc4ccccc42)C3)C[C@@H]1CNC(C)=O (stereo partly drawn) [1-217]	0%/ 0%	0%/ 0%
C=C(F)C(=O)N1CCN(c2nc(OC[C@@H]3CCCN3C)nc3c2CN(Cc2cc(O)ccc2C(C)C)C3)C[C@@H]1CC#N [1-218]	95%	94%
C=CC(=O)N1CCN(c2nc(OC[C@@H]3CCCN3C)nc3c2CN(C2CCc4ccccc42)C3)C[C@@H]1Cn1ccnc1 (stereo partly drawn) [1-219]	0%	1%
C=CC(=O)N1CCN(c2nc(OC[C@@H]3CCCN3C)nc3c2CN(C2CCc4ccccc42)C3)C[C@@H]1Cn1cccn1 (stereo partly drawn) [1-220]	0%	2%
C=C(F)C(=O)N1CCN(c2nc(OC[C@@H]3CCCN3C)nc3c2CN(Cc2ccccc2C(F)(F)F)C3)C[C@@H]1CC#N [1-221]	62%	92%
C=C(F)C(=O)N1CCN(c2nc(OC[C@@H]3CCCN3C)nc3c2CN(Cc2cc(Cl)ccc2C(F)(F)F)C3)C[C@@H]1CC#N [1-222]	3%	24%
C=CC(=O)N1CCN(c2nc(OC[C@@H]3CCCN3C)nc3c2CN(C2CCc4ccccc42)C3)C[C@@H]1Cc1ncc[nH]1 (stereo partly drawn) [1-224, 1-((2S)-2-((1H-imidazol-2-yl)methyl)-4-(6-(2,3-dihydro-1H-inden-1-yl)-2-(((S)-1-methylpyrrolidin-2-yl)methoxy)-6,7-dihydro-5H-pyrrolo[3,4-d]pyrimidin-4-yl)piperazin-1-yl)prop-2-en-1-one]	0%/ 0%	0%/ 0%
C=CC(=O)N1CCN(c2nc(OC[C@@H]3CCCN3C)nc3c2CN(Cc2ccccc2CC(F)(F)F)C3)C[C@@H]1CC#N [1-225]	77%	93%

Compound	CAF (10 minutes/60 minutes) at 10 micromolar: 10 minutes	CAF (10 minutes/60 minutes) at 10 micromolar: 60 minutes
C=CC(=O)N1CCN(c2nc(O[C@@H]3CN(C)C[C@H]3OC)nc3c2CN(C2CCc4ccccc42)C3)C2COCC21 (stereo partly drawn) [1-227]	0%/ 0%	0%/ 0%
C=CC(=O)N1CCN(c2nc(O[C@@H]3CN(C)C[C@H]3OC)nc3c2CN(C2CCc4ccccc42)C3)C2CS(=O)(=O)CC21 (stereo partly drawn) [1-228]	0%/ 0%	0%/ 0%
C=CC(=O)N1CCN(c2nc(OC[C@@H]3CCCN3C)nc3c2CN(Cc2c(Cl)ccc4nc[nH]c24)C3)C[C@@H]1CC#N [1-229]	94%	95%
C=CC(=O)N1CCN(c2nc(OC[C@@H]3CCCN3C)nc3c2CN(C2CCc4ccccc42)C3)C[C@@H]1CCC(N)=O (stereo partly drawn) [1-231]	0%	1%
C=CC(=O)N1C2CC(=O)CC1CN(c1nc(O[C@@H]3CN(C)C[C@H]3OC)nc3c1CN(C1CCc4ccccc41)C3)C2 (stereo partly drawn) [1-232]	0%/ 0%	0%/ 0%
C=CC(=O)N1C2CC(=O)CC1CN(c1nc(OC[C@@H]3CCCN3C)nc3c1CN(C1CCc4ccccc41)C3)C2 (stereo partly drawn) [1-233]	0%	5%
C#Cc1ccccc1CN1Cc2nc(OC[C@@H]3CCCN3C)nc(N3CCN(C(=O)C=C)[C@@H](CC#N)C3)c2C1 [1-235]	0%/ 0%	0%/ 0%
C=CC(=O)N1CCN(c2nc(OC[C@@H]3CCCN3C)nc3c2CN(Cc2c(Cl)ccc4ccccc24)C3)C[C@@H]1CC#N [1-236]	94%	95%
C=CC(=O)N1CCN(c2nc(OC[C@@H]3CCCN3C)nc3c2CN(S(=O)(=O)c2ccccc2C)C3)C[C@@H]1CC#N [1-237]	27%	80%
C=CC(=O)N1CCN(c2nc(OC[C@@H]3CCCN3C)nc3c2CN(S(=O)(=O)c2cccc4ccccc24)C3)C[C@@H]1CC#N [1-238]	73%	95%
C=CC(=O)N1CC2CC1CN2c1nc(OC[C@@H]2CCCN2C)nc2c1CN(C1CCc3ccccc31)C2 (stereo partly drawn) [1-249]	0%/ 0%	0%/ 0%
C=CC(=O)N1CC2CC(=O)CC1CN2c1nc(OC)nc2c1CN(C1CCc3ccccc31)C2 (stereo not drawn) [1-250]	0%/ 0%	0%/ 0%
C=CC(=O)N1CC2CC(=O)CC(C1)N2c1nc(OC[C@@H]2CCCN2C)nc2c1CN(C1CCc3ccccc31)C2 (stereo partly drawn) [1-251]	0%/ 0%	0%/ 0%
C=CC(=O)N1CC2CC(=O)CC(C1)N2c1nc(O[C@@H]2CN(C)C[C@H]2OC)nc2c1CN(C1CCc3ccccc31)C2 (stereo partly drawn) [1-252]	0%/ 0%	0%/ 0%
C=C(F)C(=O)N1CCN(c2nc(OC[C@@H]3CCCN3C)nc3c2CN(Cc2c(CC)ccc(O)c2C)C3)C[C@@H]1CC#N [1-253]	93%	94%
C=C(F)C(=O)N1CCN(c2nc(OC[C@@H]3CCCN3C)nc3c2CN(Cc2c(Cl)ccc4ccccc24)C3)C[C@@H]1CC#N [1-254]	31%	73%
C=CC(=O)N1CCN(c2nc(OC[C@@H]3CCCN3C)nc3c2CN(Cc2c(CC)ccc(O)c2C)C3)C[C@@H]1CC#N [1-255]	92%	94%
C=C(F)C(=O)N1CCN(c2nc(OC[C@@H]3CCCN3C)nc3c2CN(Cc2c(Cl)ccc(O)c2C)C3)C[C@@H]1CC#N [1-311]	93%	95%
C=CC(=O)N1CCN(c2nc(OC[C@@H]3CCCN3C)nc3c2CN(Cc2c(Cl)ccc(O)c2C)C3)C[C@@H]1CC#N [1-312]	95%/ 95%	95%/ 95%
C=C(F)C(=O)N1CCN(c2nc(OC[C@@H]3CCCN3C)nc3c2CN(Cc2c(CC)ccc(O)c2OC)C3)C[C@@H]1CC#N [1-313]	87%	95%
C=CC(=O)N1CCN(c2nc(OC[C@@H]3CCCN3C)nc3c2CN(Cc2cc(O)ccc2Cl)C3)C2COCC21 (stereo partly drawn) [1-315]	41%	66%
